# According to patent US4626533A, “7-(2-thienylacetamido)-3-acylaminomethyl-cephalosporins” (Biogal Gyogyszergyar, priority 1983, dated 1986):
# Tested on: Gram-negative strains
# Assay: MIC determination, Gram-negative strains
# Assay type: cell-based
# Details: range over Gram-negative strains
# Protocol: The examinations were carried out by using the bacteria strains listed hereinbelow: Gram-negative strains E. coli 35034 Klebsiella 52001 Klebsiella ATCC 1200 S. hartford 10063 P. mirabilis 60012 P. morganii 63002 P. rettgeri 65002 P. inconstans 67001 P. aeruginosa ATCC 27853
row,MIC [µg/mL],Compound
1,> 100,"O=C(CSc1nnc(-c2ccccc2)o1)NC1C(=O)N2C(C(=O)O)=C(CNC(=O)c3c(Cl)cccc3Cl)CS[C@H]12 (stereo partly drawn) [Example 15, 7-(2-phenyl-1,3,4-oxadiazole-5-ylthio)acetamido-3-(2,6-dichlorobenzoylamino)methylceph-3-em-4-carboxylic acid]"
2,> 100,"CC(=O)NCC1=C(C(=O)O)N2C(=O)C(NC(=O)CSc3nnc(-c4ccccc4)o3)[C@H]2SC1 (stereo partly drawn) [Example 8, 7-(2-phenyl-1,3,4-oxadiazole-5-ylthio)acetylamino-3-acetylaminomethylceph-3-em-4-carboxylic acid]"
3,> 100,"Cn1nnnc1SCC(=O)NC1C(=O)N2C(C(=O)O)=C(CNC(=O)c3c(Cl)cccc3Cl)CSC12 (stereo not drawn) [Example 14, 7-(1-methyl-1H-tetrazole-5-ylthio)acetamido-3-(2,6-dichlorobenzamino)methylceph-3-em-4-carboxylic acid]"
